{
  "source": "patent US20120189673A1",
  "about": "“POLYPEPTIDES AND USES THEREOF” (priority 2009, published 2012)",
  "molecules": {"B1": {"name": "HRG: 67 kDa plasma protein histidine-rich glycoprotein, purified from human serum (protein, UniProt P04196 19-525, looked up)", "Histidine-rich glycoprotein": "VSPTDCSAVEPEAEKALDLINKRRRDGYLFQLLRIADAHLDRVENTTVYYLVLDVQESDCSVLSRKYWNDCEPPDSRRPSEIVIGQCKVIATRHSHESQDLRVIDFNCTTSSVSSALANTKDSPVLIDFFEDTERYRKQANKALEKYKEENDDFASFRVDRIERVARVRGGEGTGYFVDFSVRNCPRHHFPRHPNVFGFCRADLFYDVEALDLESPKNLVINCEVFDPQEHENINGVPPHLGHPFHWGGHERSSTTKPPFKPHGSRDHHHPHKPHEHGPPPPPDERDHSHGPPLPQGPPPLLPMSCSSCQHATFGTNGAQRHSHNNNSSDLHPHKHHSHEQHPHGHHPHAHHPHEHDTHRQHPHGHHPHGHHPHGHHPHGHHPHGHHPHCHDFQDYGPCDPPPHNQGHCCHGHGPPPGHLRRRGPGKGPRPFHCRQIGSVYRLPPLRKGEVLPLPEANFPSFPLPHHKHPLKPDNQPFPQSVSESCPGKFKSGFPQVSMFFTHTFPK"}},
  "key": {"[1]": {"system": "intrinsic pathway of coagulation in normal human plasma", "assay": "Clotting assay: activated partial thromboplastin time (aPTT)", "assay_type": "biochemical", "procedure": "(§1) Clotting assays. All clotting times were measured using an Amelung coagulometer. Activated partial thromboplastin time (aPTT) was measured by incubating the peptides diluted in sterile water at the indicated concentrations, with 100 μL citrated human plasma for 1 minute followed by the addition of 100 μL aPTT reagent (aPTT Automate, Diagnostica Stago) for 60 seconds at 37° C. Clotting was initiated by the addition of 100 μL of a 25-mM CaCl2 solution. In the prothombrin time assay (PT), clotting was initiated by the addition of 100 μL Thrombomax with calcium (PT reagent; Sigma-Aldrich). For measuring the thrombin clotting time (TCT), clotting was initiated by the addition of 100 μL Accuclot thrombin time reagent (TCT reagent; Sigma-Aldrich)."}, "[2]": {"system": "extrinsic pathway of coagulation in normal human plasma", "assay": "Clotting assay: prothrombin time (PT)", "assay_type": "biochemical", "procedure": "as §1"}, "[3]": {"system": "thrombin induced fibrin network formation in normal human plasma", "assay": "Clotting assay: thrombin clotting time (TCT)", "assay_type": "biochemical", "procedure": "as §1"}, "[4]": {"assay": "Properties stated for FFF21 (FIG. 56)"}, "[5]": {"system": "Human monocyte-derived macrophages", "assay": "TNF-α release from human macrophages", "assay_type": "cell-based", "conditions": "10 ng/ml LPS with or without HRG (2 μM); GHH25 10 and 100 μM; 24 hours", "procedure": "TNF-α release from human macrophages. Human monocyte-derived macrophages (hMDMs) were obtained from peripheral blood mononuclear cells (PBMCs) obtained from the blood of healthy donors using a Lymphoprep (Axis-Shield PoC AS) density gradient. PBMCs were seeded at concentrations of 3×10^6 cells/well into 24-well plates and cultured in RPMI1640 medium supplemented with 10% heat-inactivated autologous human plasma, 2 mM L-glutamine, and 50 μl/ml Antibiotic-Antimycotic (Gibco) in a humidified atmosphere of 5% CO2. After 24 h, non-adherent cells were removed and adherent monocytes were differentiated to macrophages for 10 days, with fresh medium changes every second day. […] After stimulation the supernatant was aspirated and TNF-α was measured using the TNF-α human ELISA kit (Invitrogen)."}, "[6]": {"system": "E. coli LPS induced sepsis in wildtype C57BL/6 mice", "assay": "LPS induced sepsis in wildtype mice, treatment with GHH25", "assay_type": "in vivo, mouse", "text": "Animal experiments. The original knockout mice 129/B6-HRG^tm1wja1 were crossed with C57BL/6 mice (Taconic) for 14 generations to obtain uniform genetic background. These HRG-deficient mouse strain was called B6-HRG^tm1wja1 following ILAR (Institute of Laboratory Animal Resources) rules. Wildtype C57BL/6 control mice and C57BL/6 Hrg−/− mice (8-12 weeks, 27+/−4 g) were bred in the animal facility at Lund University. C57BL/6 Hrg^−/−, lacks the translation start point of exon 1 of the Hrg gene. Animals were housed under standard conditions of light and temperature and had free access to standard laboratory chow and water. In order to induce sepsis, 18 µg/g Escherichia coli 0111:B4 LPS were injected intraperitoneally into C57BL/6 or C57BL/6 Hrg−/− mice, divided into weight and sex matched groups. Survival and status was followed during seven days.\nFor treatment with GHH25 peptide, 1 mg of the peptide (diluted in 10 mM Tris, pH 7.4) or buffer only was injected intraperitoneal 30 minutes after LPS-challenge and survival and status was then followed.\nAnimal experiments. The original knockout mice 129/B6-HRG^tm1wja1 were crossed with C57BL/6 mice (Taconic) for 14 generations to obtain uniform genetic background. These HRG-deficient mouse strain was called B6-HRG^tm1wja1 following ILAR (Institute of Laboratory Animal Resources) rules. […]"}, "RAW macrophages": {"system": "RAW macrophages", "assay": "Nitric oxide induction in RAW macrophages by LPS with or without HRG", "assay_type": "cell-based, murine", "conditions": "24 hours", "procedure": "(§2) Nitric oxide induction in RAW macrophages. Confluent cells were harvested and transferred to 96-wells plate (3.5×10^5/well). After adhesion cells were washed with phenol red-free DMEM (Gibco). E. Coli LPS (100 ng/ml), LL-37 (2 or 10 μM) or HRG (2 or 10 μM) was preincubated at 37° C. for 30 minutes and then transferred to the cells. For inhibition of NO induction, 5 µg/ml anti mouse TLR4 antibody, 10 or 100 µM GHH25 or 100 µg/ml heparin were used. The cells were stimulated for 24 hours and nitric oxide was determined using the Griess chemical method.\nas §2, with “([…]).” for “(3.5×10^5/well).”, “For inhibition of NO induction, 5 µg/ml anti mouse TLR4 antibody, 10 or 100 µM GHH25 or 100 µg/ml heparin were used.” left out"}, "[7]": {"assay": "LPS-binding slot-blot assay with iodinated LPS", "set-up": "species or system Escherichia coli", "conditions": "2 and 5 μg HRG on nitrocellulose; pH 7.4 or pH 5.5, with or without 0.15M NaCl", "procedure": "Radioiodination of heparin and LPS. The radioiodination of heparin (from porcine intestinal mucosa, Sigma-Aldrich) was performed as described previously. The iodination of LPS was performed as described by Ulevitch. 1 mg Escherichia coli 0111:B4 LPS was incubated in 50 mM p-OH benzimidate in borate buffer, pH 8, over night at 4° C., and then dialyzed against PBS, pH 7.4. LPS was then radiolabelled with ^125I using the chloramine T method, and unlabelled ^125I was then removed by dialysis.\nHeparin and LPS-binding assay. 1, 2 and 5 μg of the synthetic peptides in 100 μl PBS pH 7.4 were applied onto nitrocellulose membranes (Hybond-C, Amersham Biosciences) using a slot-blot apparatus. Membranes were blocked for 1 h at room temperature with 2% bovine serum albumin in PBS pH 7.4 and then incubated with radiolabelled LPS (˜40 μg·mL^−1, 0.13×10^6 cpm·μg^−1) or radiolabelled heparin (˜10 μg·mL^−1, 0.4×10^6 cpm·μg^−1) for 1 h at room temperature in PBS, pH 7.4. […] A Bas 2000 radio-imaging system (Fuji Film, Tokyo, Japan) was used to visualize radioactivity.\nSlot-blot assay. […] After LPS binding, membranes were washed 3 times, 10 min each time in the above buffers and visualized for radioactivity on Bas 2000 radioimaging system (Fuji, Japan). […]\nHeparin and LPS-binding assay. […] A Bas 2000 radio-imaging system (Fuji Film, Tokyo, Japan) was used to visualize radioactivity."}},
  "data": [
    {"molecule": "CC[C@H](C)[C@H](NC(=O)[C@H](CCCCN)NC(=O)[C@H](CCC(=O)O)NC(=O)[C@H](CCCCN)NC(=O)[C@H](CO)NC(=O)[C@H](CCCCN)NC(=O)[C@H](CCCNC(=N)N)NC(=O)[C@H](Cc1ccccc1)NC(=O)[C@H](Cc1ccccc1)NC(=O)[C@H](CC(=O)O)NC(=O)CNC(=O)[C@H](CC(C)C)NC(=O)[C@@H](N)CC(C)C)C(=O)NCC(=O)N[C@@H](CCCCN)C(=O)N[C@@H](CCC(=O)O)C(=O)N[C@@H](Cc1ccccc1)C(=O)N[C@@H](CCCCN)C(=O)N[C@@H](CCCNC(=N)N)C(=O)N[C@H](C(=O)N[C@H](C(=O)N[C@@H](CCC(N)=O)C(=O)N[C@@H](CCCNC(=N)N)C(=O)N[C@H](C(=O)N[C@@H](CCCCN)C(=O)N[C@@H](CC(=O)O)C(=O)N[C@@H](Cc1ccccc1)C(=O)N[C@@H](CC(C)C)C(=O)N[C@@H](CCCNC(=N)N)C(=O)N[C@@H](CC(N)=O)C(=O)N[C@@H](CC(C)C)C(=O)N[C@H](C(=O)N1CCC[C@H]1C(=O)N[C@@H](CCCNC(=N)N)C(=O)N[C@H](C(=O)N[C@@H](CCC(=O)O)C(=O)N[C@@H](CO)C(=O)O)[C@@H](C)O)C(C)C)[C@@H](C)CC)C(C)C)[C@@H](C)CC", "note": "[LL-37]", "values": [
      {"measurement": "doses at which erythrocytes were readily permeabilized", "setting": "erythrocytes", "result": "> 6", "unit": "µM"}
    ]},
    {"molecule": "FFFAKLNCRLYRKANKSSKLV [FFF21, Antithrombin III-derived peptide, aa 153-173 of antithrombin III, P01008]", "values": [
      {"measurement": "activated partial thromboplastin time (aPTT)", "setting": "[1]", "result": "impairs the intrinsic pathway of coagulation"},
      {"measurement": "prothrombin time (PT)", "setting": "[2]", "result": "not significantly affected"},
      {"measurement": "thrombin clotting time (TCT)", "setting": "[3]", "result": "not significantly affected"},
      {"measurement": "antibacterial and antiinflammatory properties", "setting": "[4]", "result": "antibacterial and antiinflammatory properties"}
    ]},
    {"molecule": "GHHPHGHHPHGHHPHGHHPHGHHPH [GHH25]", "values": [
      {"measurement": "TNF-α (HRG and LPS induced responses)", "setting": "[5]", "result": "inhibits HRG and LPS induced responses"},
      {"measurement": "survival", "setting": "[6]; 1 mg GHH25 i.p. 30 minutes after E. coli LPS, followed seven days, p=0.03", "result": "significantly increased survival"},
      {"measurement": "health status", "setting": "[6]; LPS induced sepsis, treatment with GHH25", "result": "Improved health status"},
      {"measurement": "LPS and HRG mediated NO release", "setting": "RAW macrophages; 100 ng/ml LPS with or without HRG (2 μM), GHH25 10 and 100 μM", "result": "significantly decreased"}
    ]},
    {"molecule": "B1", "values": [
      {"measurement": "LPS mediated NO release", "setting": "RAW macrophages; 100 ng/ml LPS, HRG 2 and 10 μM, n=6, p=0.001", "result": "significantly increased"},
      {"measurement": "binding of iodinated LPS", "setting": "[7]", "result": "LPS-binding"}
    ]}
  ]
}
